Laboratory results from US20040241225A1, “Modulation of vitamin storage” (priority 2001, published 2004).

Assays:
[1] = assay type: physicochemical
Method: An extraction method was developed which gave the maximum recovery of TP. The stability of TP to the extraction methodology was tested by subjecting pure TP to the extraction protocol, virtually 100% recovery was obtained.

[2] = Solubility of α-tocopheryl phosphate; assay type: physicochemical
[3] = Liver TP level 24 h after a single dose of TP or tocopheryl acetate, quantitated by ESMS; details: rat, 24 h after administration

## α-tocopheryl phosphate [TP]
[1]; alkaline and acid hydrolysis conditions of standard α-tocopherol extraction procedures
  resistance to hydrolysis: resistant to all of the alkaline and acid hydrolysis conditions
[1]; conditions of the standard colorimetric α-tocopherol analysis
  resistance to oxidation: resistant to oxidation
[1]; refluxing under strongly alkaline or acidic conditions in excess of 24 hours
  cleavage of the phosphate bond: does not lead to any cleavage of the phosphate bond
[2]; high pH
  solubility in water: soluble
[2]; low pH
  solubility in organic solvents: soluble
[3]; i.v., single dose 3 mg/kg
  liver TP: 17 ug ug/gm
[3]; i.v., single dose 10 mg/kg
  liver TP: 24 ug ug/gm
[3]; i.v., single dose 30 mg/kg
  liver TP: 28 ug ug/gm
[3]; i.v., single dose 100 mg/kg
  liver TP: 27 ug ug/gm
[3]; oral, single dose 10 mg/kg
  liver TP: 19.18 ug ug/gm
[3]; oral, single dose 30 mg/kg
  liver TP: 18.35 ug ug/gm
